Measurements from patent US12004506B2, “Pharmaceutical composition comprising a cyclic peptide of formula X1-[sequence]-X2 and use for extracorporeal lung treatment” (priority 2013, dated 2024).

How the values were obtained:
[1] = tested on: non-ischemic pig donor lung; assay: Ex vivo lung perfusion (EVLP) of non-ischemic pig donor lungs, inhalative application; details: inhalative application, 1 mg/kg, hourly T1 to T4, vs WFI control
Method: Brain death pigs were turned into dorsal position, and a longitudinal sternotomy was performed. The pericardium and both pleural cavities were opened. […] An inflow catheter was placed in the pulmonary artery through a purse-string on the right ventricular outflow tract.
The lungs (non-ischemic) were then preserved with an ante grade flush of cold isotonic preservation solution (50 ml per kg body weigh of pig, containing potassium ions, sodium ions, magnesium ions, calcium ions, chloride ions, dextran, glucose, buffering ions) through the inflow catheter. Incision of the left auricular appendix provides outflow. The lungs were ventilated during this period with 50% oxygen, and iced slush were placed in both pleural cavities and mediastinum.
The explanation technique was en bloc harvesting with heart and esophagus according to the following steps: • a) Dissection of soft tissue bridges to the thoracic cavity on both sides of the trachea. • b) Transsection of both pulmonal ligaments (very deep, difficult exposure), then of the VCI, the lower thoracic descendent aorta and the esophagus, respectively. • c) Blunt separation from remaining mediastinal adhesions. • d) Complete inflation of the donor lung prior of tracheal closure with a stapler.
After explantation, the lungs were wrapped in gauze, placed in an insulated ice bag filled with low-potassium dextran extracellular solution, and stored at 4° C. for 18 to 24 hours. A temperature probe was submerged in the container, which will be placed in a refrigerator.
For ex-vivo lung conditioning, the EVLP technique ([…]) was used. In the EVLP technique, donor lungs are placed into a circuit composed of a pump, ventilator and filters. EVLP technique, the temperature may increased up to 37 °C. In the EVLP, a ventilator is used to deliver oxygen to the lungs. The pump is used to perfuse the lungs with an extracellular solution containing human albumin and nutrition. During EVLP, the lung function can be evaluated regularly on key indicators. […]

[2] = tested on: sodium ion current in A549 cells (deglycosylated cell surface); assay: Patch clamp assay, whole cell mode, on A549 cells deglycosylated with PNGase F; assay type: cell-based, human; details: 240 nM peptide, Eh -100 mV
[3] = Particle size of aerosol droplets after nebulizing the aqueous solution; assay type: physicochemical
Method: With the aid of nebulizers the aqueous solution of a cyclised compound of formula I, namely that of the amino acid sequence SEQ ID NO: 1 was transferred into an aerosol. The particle size of the droplets was measured after subjecting the aqueous solution to 3 different nebulizers and is set out in Table II below: […]

transplanted pig lung = assay: Re-implantation of pre-treated non-ischemic donor lungs in recipient pigs; assay type: in vivo; details: nebulisation 1 mg/kg, 24 h evaluation
Method: After the pre-treatment of the non-ischemic donor lungs with peptide SEQ ID NO:1 from Example 4 the lungs were re-implanted in recipient pigs. Shortly after reperfusion of the transplanted lungs peptide SEQ ID NO: 1 was administered.
A left thoracotomy through the sixth inter costal space was done, the left hilus was prepared. The hemiazygos vein on the left side was dissected and transected, as it is hiding both the left pulmonary artery and the left atrium. After dissection the ligated ends can be pulled to facilitate exposure of the OP field. The […] and bronchus are encircled. Left pneumonectomy was performed using vascular clamps. Immediately before the implantation single intravenous dose of methylprednisolone (500-1000 mg) and a low dose of heparin (100 IU/kg, see above) was applied. The donor lung was then reimplanted using 4-0 PDS for the bronchial anastomosis and 5-0 Prolene for the pulmonary artery and the left atrial anastomosis. In pigs, there is an additional lobe (caval lobe) of the right lung with 2 veins into the left atrium (1 separate vein for the caval lobe, 1 additional vein arising from the trunk of the main right lower lobe vein). […]
The left donor lung was evaluated for an additional period of 24 hours.
The following parameters have been assessed:
Functional assessment of graft function by oxygenation parameters: Arterial blood gas analyses as well as selective blood gas analysis from the left pulmonary veins were performed every 2 hours for 24 h. The respiratory index was calculated: RI=PaO2/FiO2.
Lung compliance was calculated from the pressure and volume data of the anesthesia ventilator. […]
Functional assessment of graft function by hemodynamic measurements (on-line measurements) and pulmonary vascular resistance (PVR): Hemodynamics, including pulmonary artery pressure (PAP) was measured continuously. Cardiac output (CO) was measured by using a Swan-Ganz catheter. Pulmonary vascular resistance is calculated by the following formula: PVR (dynes·[…]·cm−5)=(PAP−LAP)×80/CO.

## C[C@@H]1NC(=O)CNC(=O)[C@H](CCC(=O)O)NC(=O)[C@@H]2CCCN2C(=O)[C@H]([C@@H](C)O)NC(=O)[C@H](CCC(=O)O)NC(=O)[C@H](CCCNC(=N)N)NC(=O)[C@H](CCC(N)=O)NC(=O)CNC(=O)[C@@H](N)CSSC[C@@H](C(=O)O)NC(=O)[C@H](Cc2ccc(O)cc2)NC(=O)[C@H](Cc2c[nH]c3ccccc23)NC(=O)[C@@H]2CCCN2C(=O)[C@H](CCCCN)NC(=O)[C@H](C)NC(=O)[C@H](CCC(=O)O)NC1=O [SEQ ID NO: 1]
[1]; FIG. 2A
  dynamic lung compliance: improved
[1]; FIG. 2B
  arterio-venous pO2 difference ΔpO2: improved
[2]
  Whole cell current, no pre-treatment with PNGase F: 1073.3 ± 15.1 pA
[3]; nebulizer Type A
  Amount of particles with Ø ≤ 5 μm: 50%
  Median particle diameter: 4.7 μm
[3]; nebulizer Type B
  Amount of particles with Ø ≤ 5 μm: 70%
  Median particle diameter: 3.3 μm
[3]; nebulizer Type C
  Amount of particles with Ø ≤ 5 μm: 65%
  Median particle diameter: 3.7 μm
Transplanted pig lung
  development of lung oedema: reduced
  initial graft function and gas exchange: improved
  rate of ischemia reperfusion injury induced malfunction of the transplanted lung: reduced
